Results as given in patent publication US20050171037A1, “Therapeutic combinations” (Agouron Pharmaceuticals, Inc., priority 2004, published 2005).
Like-named read-outs stand apart in the source and are kept apart here.

Tests used:
[1] = Compound B pharmacokinetics after oral administration of a single dose alone (fasting) and with ritonavir (fed), human subjects; type: in vivo; conditions: geometric mean
[2] = as above; type: in vivo; conditions: for half-life / Cmax / AUC / Tmax: plasma; for half-life / Ae % (drug recovered unchanged in urine, percent of administered dose): arithmetic mean; for half-life: read-out: t1/2 (terminal phase plasma half-life) (converted); for AUC: read-out: AUC (area under the concentration-time curve from time 0 to infinity); for Tmax: median
Procedure: Nos. 11/008325, filed Dec. 8, 2004, and 60/591,351, filed Jul. 26, 2004, all of which are hereby incorporated by reference for this purpose. A total of 21 human subjects were administered a single 300 mg, 900 mg, 1800 mg, or 3600 mg dose of a spray-dried composition comprising 90 wt % amorphous Compound B and 10 wt % hydroxypropyl methyl cellulose acetate succinate (HPMCAS) under fasting conditions. […] Each plasma sample was analyzed for the presence of Compound B and the following pharmacokinetic parameters for Compound B were determined for each subject: area under the concentration-time curve from time 0 extrapolated to infinity (AUC), maximum observed plasma concentration (Cmax), time to first occurrence of Cmax (Tmax), terminal phase plasma half-life (t %), CL/F=apparent oral clearance, and cumulative amount of drug recovered unchanged in the urine expressed as a percentage of administered dose (Ae %).

[3] = po, 300 mg, single oral dose 300 mg (active dose 270 mg), alone, fasting
[4] = po, 300 mg, single oral dose 300 mg (active dose 270 mg), alone, fasting, geometric mean
[5] = po, 900 mg, single oral dose 900 mg (active dose 810 mg), alone, fasting
[6] = po, 900 mg, single oral dose 900 mg (active dose 810 mg), alone, fasting, geometric mean
[7] = po, 1800 mg, single oral dose 1800 mg (active dose 1620 mg), alone, fasting
[8] = po, 1800 mg, single oral dose 1800 mg (active dose 1620 mg), alone, fasting, geometric mean
[9] = po, 3600 mg, single oral dose 3600 mg (active dose 3240 mg), alone, fasting
[10] = po, 3600 mg, single oral dose 3600 mg (active dose 3240 mg), alone, fasting, geometric mean
[11] = po, single oral dose 300 mg (active 270 mg) + ritonavir (100 mg every 12 hours for 3 doses), fed
[12] = po, single oral dose 450 mg (active 405 mg) + ritonavir (100 mg every 12 hours for 3 doses), fed

Cc1c(O)cccc1C(=O)N[C@@H](Cc1ccccc1)[C@H](O)C(=O)N1CC(F)(F)C(C)(C)[C@H]1C(=O)NCC(F)(F)F [Compound B, 4,4-difluoro-1-{(2S,3S)-2-hydroxy-3-[(3-hydroxy-2-methylbenzoyl)amino]-4-phenylbutanoyl}-3,3-dimethyl-N-(2,2,2-trifluoroethyl)-L-prolinamide]
Cmax ([1]; plasma, po, single oral dose 300 mg (active 270 mg) + ritonavir (100 mg every 12 hours for 3 doses)): 3.1 µg/mL
CL/F (apparent oral clearance) ([1]; single oral dose 300 mg (active 270 mg) + ritonavir (100 mg every 12 hours for 3 doses)): 7.75 L/h
CL/F (apparent oral clearance) ([1]; single oral dose 450 mg (active 405 mg) + ritonavir (100 mg every 12 hours for 3 doses)): 7.84 L/h
half-life [2, 3]: 2.76 h
Cmax [2, 4]: 1.53 µg/mL
AUC [2, 4]: 6.11 µg·h/mL
Tmax [2, 3]: 0.5 h
half-life [2, 5]: 3.25 h
Cmax [2, 6]: 4.61 µg/mL
AUC [2, 6]: 28.2 µg·h/mL
Tmax [2, 5]: 2 h
half-life [2, 7]: 3.6 h
Cmax [2, 8]: 8.67 µg/mL
AUC [2, 8]: 74.5 µg·h/mL
Tmax [2, 7]: 3.02 h
half-life [2, 9]: 4.15 h
Cmax [2, 10]: 14.5 µg/mL
AUC [2, 10]: 164 µg·h/mL
Tmax [2, 9]: 4 h
half-life [2, 11]: 8.54 h
Tmax [2, 11]: 4 h
half-life [2, 12]: 10.3 h
Cmax ([2]; po, single oral dose 450 mg (active 405 mg) + ritonavir (100 mg every 12 hours for 3 doses), fed, geometric mean): 3.83 µg/mL
Tmax [2, 12]: 4.02 h
AUC ([2]; single oral dose 300 mg (active 270 mg) + ritonavir (100 mg every 12 hours for 3 doses), fed, geometric mean): 34.8 µg·h/mL
Ae % (drug recovered unchanged in urine, percent of administered dose) ([2]; single oral dose 300 mg (active 270 mg) + ritonavir (100 mg every 12 hours for 3 doses), fed): 17.7%
Ae % (drug recovered unchanged in urine, percent of administered dose) ([2]; single oral dose 300 mg (active dose 270 mg), alone, fasting): 3.67%
CL/F (apparent oral clearance) ([2]; single oral dose 300 mg (active dose 270 mg), alone, fasting, geometric mean): 44.2 L/h
Ae % (drug recovered unchanged in urine, percent of administered dose) ([2]; single oral dose 450 mg (active 405 mg) + ritonavir (100 mg every 12 hours for 3 doses), fed): 17.6%
AUC (area under the concentration-time curve from time 0 to infinity) ([2]; single oral dose 450 mg (active 405 mg) + ritonavir (100 mg every 12 hours for 3 doses), fed, geometric mean): 51.6 µg·h/mL
Ae % (drug recovered unchanged in urine, percent of administered dose) ([2]; single oral dose 900 mg (active dose 810 mg), alone, fasting): 4.89%
CL/F (apparent oral clearance) ([2]; single oral dose 900 mg (active dose 810 mg), alone, fasting, geometric mean): 28.7 L/h
Ae % (drug recovered unchanged in urine, percent of administered dose) ([2]; single oral dose 1800 mg (active dose 1620 mg), alone, fasting): 10.4%
CL/F (apparent oral clearance) ([2]; single oral dose 1800 mg (active dose 1620 mg), alone, fasting, geometric mean): 21.7 L/h
Ae % (drug recovered unchanged in urine, percent of administered dose) ([2]; single oral dose 3600 mg (active dose 3240 mg), alone, fasting): 11.8%
CL/F (apparent oral clearance) ([2]; single oral dose 3600 mg (active dose 3240 mg), alone, fasting, geometric mean): 19.7 L/h
